Laboratory results published in patent EP4703358A1, “BENZO SIX-MEMBERED HETEROCYCLIC GSPT1 PROTEIN DEGRADATION AGENT AND USE THEREOF” (China Pharmaceutical University, priority 2023, dated 2024).

Experiments:
[1] = test system: MV4-11; assay: Antiproliferative activity against tumor cells (CCK8), MV4-11; format: cell-based; conditions: Homo sapiens, MV4-11 cells, 72 hours
Method: (§1) U937, MOLM-13, and MV4-11 cells (ATCC) in the logarithmic growth phase were separately diluted in a culture medium and plated onto 96-well plates at 5000 cells/well, and the plates were incubated in an incubator at 37 °C with 5% CO2 for 24 hours. 10 mM stock solutions of the compounds in DMSO were prepared and diluted with the culture medium to set 9 concentration gradients. Three replicate wells were set for each concentration. After compound addition, the plates were incubated in an incubator at 37 °C with 5% CO2 for 72 hours. The cell proliferation was assessed using the CCK8 method. The cell growth inhibition IC50 values of the compounds were determined using an enzyme labeling method. The IC50 values were calculated using GraphPad Prism 7 software.
(§2) The antiproliferative activity of the compounds against the tumor cells is shown in Table 3, where A represents IC50 < 1 nM, B represents 1 ≤ IC50 < 10 nM, C represents 10 nM ≤ IC50 < 100 nM, D represents 100 nM ≤ IC50 < 1000 nM, and E represents IC50 ≥ 1000 nM. Table 3. The antiproliferative activity of compounds against tumor cells

[2] = test system: KG-1 cells; assay: Antiproliferative activity against KG-1 cells (CCK8); format: cell-based; conditions: Homo sapiens, 72 hours
Method: KG-1 cells in the logarithmic growth phase were diluted in a culture medium (RPMI + 10% FBS) and plated onto 96-well plates at 5000 cells/well, and the plates were incubated in an incubator at 37 °C with 5% CO2 for 24 hours. 10 mM stock solutions of the test compounds of the present disclosure in DMSO were prepared and diluted with the culture medium to set 9 concentration gradients. Three replicate wells were set for each concentration. After compound addition, the plates were incubated in an incubator at 37 °C with 5% CO2 for 72 hours. The cell proliferation was assessed using the CCK8 method. The cell growth inhibition IC50 values of the compounds were determined using an enzyme labeling method. The IC50 values were calculated using GraphPad Prism 7 software.
as §2, with “KG-1” for “the tumor”, “2,” for “3,”, “2.” for “3.”, “KG-1” for “tumor”

[3] = Metabolic stability in in vitro rat liver microsomes; conditions: rat
Method: 10 mM stock solutions of the test compounds in DMSO were prepared, diluted with acetonitrile and then with PBS, and vortexed, with the DMSO content controlled at 0.1%. The dilute working solutions (10 µL) were incubated with 65 µL of a liver microsome system (30 µL of 100 mM PBS, 25 µL of 20 mM MgCl2, and 10 µL of 5 mg/mL RLMs) and preheated at 37 °C for 5 min. 25 µL of 4 mM NADPH was added to start a reaction. Samples were taken at different time points (0 min, 5 min, 15 min, 30 min, 60 min, and 120 min), and an acetonitrile solution containing an internal standard was added to stop the reaction. After vortexing and centrifugation, the supernatants were collected and analyzed by LC-MS/MS, and the half-lives and clearance rates were calculated.

[4] = test system: U937; assay: Antiproliferative activity against tumor cells (CCK8), U937; format: cell-based; conditions: Homo sapiens, U-937, 72 hours
Method: as §1, §2

[5] = In vivo pharmacokinetic study in rats; conditions: rat; for AUC(0-inf) / AUC(0-t) / C0 / Vd / clearance / half-life / Cmax / Tmax: male, SD, plasma; for F: PO 10mg/kg
Method: Sample collection and preparation: After SPF SD rats (male, 210-230 g, 42-48 days, RILD Liver) in a good growth state were dosed intravenously at 2 mg/kg and orally at 10 mg/kg, blood samples were collected via the orbit at different blood collection time points and transferred to centrifuge tubes containing an anticoagulant; the intravenous blood collection time points were 0.08 hours, 0.25 hours, 0.5 hours, 1 hour, 2 hours, 4 hours, 6 hours, 8 hours, and 24 hours, and the oral blood collection time points were 0.25 hours, 0.5 hours, 1 hour, 2 hours, 4 hours, 6 hours, 8 hours, and 24 hours. The blood samples were immediately centrifuged at 4 °C and 8000 rpm for 10 minutes, and the plasma was collected and stored in an ultra-low-temperature freezer at -80 °C until it was analyzed by LC-MS/MS. Pharmacokinetic data analysis: Pharmacokinetic parameters of the compounds were calculated using pharmacokinetic software in a non-compartmental model. The peak plasma concentration (Cmax) and the time to reach the peak plasma concentration (Tmax) were taken as observation values. Parameters such as the half-life T1/2, the areas under the plasma concentration-time curve AUClast and AUCinf, the apparent volume of distribution Vss, and the clearance rate CL were determined through regression analysis of the linear terminal portion of the logarithmic plasma concentration-time curve and the linear trapezoidal rule.

[6] = target: T1, GSPT1 protein (Homo sapiens, UniProt P15170+Q96SW2); assay: Degradation of GSPT1 in KG-1 cells (Western blot); format: cell-based; design: percent GSPT1 degradation: dose or concentration left out as unconfirmed; conditions: for percent GSPT1 degradation at 0.2 µM: compound concentration 200 nM
T1 construct: host or cells: KG-1 cells
Method: KG-1 cells (ATCC) were grown in an IMDM culture medium (containing 20% FBS). After centrifugation and counting, the cell concentration was adjusted. The cells were plated onto 6-well plates at 10^6 cells/well, with 1350 µL per well. 150 µL of DMSO and the test compounds of the present disclosure (compound concentration: 200 nM) were added. The plates were incubated in an incubator at 37 °C with 5% CO2 for 4 hours. The cells were centrifuged, and the culture medium was discarded. PBS was added to wash the cells and then discarded. Whole cell lysates were prepared using a protease inhibitor cocktail (100×, Fude Biological), a protein phosphatase inhibitor cocktail (100×, Fude Biological), SuperNuclease (Beyotime), and a high-intensity RIPA lysis buffer (Thermo Fisher) and placed on ice for 30 minutes. After centrifugation, the cell debris precipitates were discarded, and the whole cell lysate supernatants were collected and transferred to new centrifuge tubes. After a BCA protein assay, samples were prepared using a 5× loading buffer (Thermo Fisher). The samples were subjected to protein electrophoresis separation in a 4-20% precast gel (SDS-PAGE gel), transferred to a PVDF membrane, then blocked with 5% NFDM/TBST at room temperature for 1 hour, incubated overnight with primary antibodies at 4 °C, and incubated with a secondary antibody at room temperature for 2 hours the next day. Signals were detected using a MINICHEMITM imaging system.
Primary antibodies: • Anti-GSPT1: Abcam ab234433 • Anti-beta actin: Fude Biological FD0060
Secondary antibody: Anti-rabbit peroxidase-linked secondary antibody: Fude Biological FDG007
The degradation effects of the compounds on GSPT1 protein are shown in Table 1, where A represents a GSPT1 protein degradation percentage of no less than 80%, B represents a degradation percentage of less than 80% but no less than 50%, C represents a degradation percentage of less than 50% but no less than 25%, and D represents a degradation percentage of less than 25%. Table 1. The degradation of GSPT1 protein by compounds

[7] = test system: human leukemia cells MV411; assay: In vivo pharmacodynamic study in MV411 acute myeloid leukemia xenograft mouse model; design: species or system BABL/c Nude mouse; conditions: once daily by oral gavage
Method: The human leukemia cells MV411 (Cell Bank, Chinese Academy of Sciences) used in this experiment were cultured in an IMDM culture medium supplemented with 10% FBS in an incubator containing CO2 at 37 °C. Before the cells were continuously sub-cultured to the tenth generation, MV411 cells in the logarithmic growth phase were used, and the cell concentration was adjusted to 1 × 10^8 cells/mL with a serum-free culture medium. Each BABL/c Nude mouse (Jiangsu GemPharmatech Co., Ltd., female, 4-6 weeks old, 14-16 g) was inoculated with 100 µL of the cell suspension by subcutaneous injection on the right dorsal side (near the axilla) under sterile conditions. When the mean tumor volume of the tumor-bearing mice reached approximately 100 mm^3, the mice were randomly divided into groups, with the tumor volume in each group being roughly the same. The day of grouping and administration was defined as day 0. The animals in each treatment group were given a compound once daily by oral gavage at 15 mg/kg, 30 mg/kg, or 60 mg/kg. The body weight and tumor volume of the animals were measured every other day.
Experimental indicator: The anti-tumor efficacy of the compounds was evaluated using the relative tumor growth inhibition rate (TGI). Tumor weight TGI (%) = {1 - [(final average tumor weight of experimental group)/(final average tumor weight of control group of tumor-bearing mice without administration)]} × 100%. Tumor volume TGI (%) = [1 - relative tumor volume of experimental group/relative tumor volume of control group of tumor-bearing mice without administration] × 100%.

[8] = test system: MOLM-13; assay: Antiproliferative activity against tumor cells (CCK8), MOLM-13; format: cell-based; conditions: Homo sapiens, MOLM-13 cells, 72 hours
Method: as §1, §2

T1 sequence (P15170 whole entry): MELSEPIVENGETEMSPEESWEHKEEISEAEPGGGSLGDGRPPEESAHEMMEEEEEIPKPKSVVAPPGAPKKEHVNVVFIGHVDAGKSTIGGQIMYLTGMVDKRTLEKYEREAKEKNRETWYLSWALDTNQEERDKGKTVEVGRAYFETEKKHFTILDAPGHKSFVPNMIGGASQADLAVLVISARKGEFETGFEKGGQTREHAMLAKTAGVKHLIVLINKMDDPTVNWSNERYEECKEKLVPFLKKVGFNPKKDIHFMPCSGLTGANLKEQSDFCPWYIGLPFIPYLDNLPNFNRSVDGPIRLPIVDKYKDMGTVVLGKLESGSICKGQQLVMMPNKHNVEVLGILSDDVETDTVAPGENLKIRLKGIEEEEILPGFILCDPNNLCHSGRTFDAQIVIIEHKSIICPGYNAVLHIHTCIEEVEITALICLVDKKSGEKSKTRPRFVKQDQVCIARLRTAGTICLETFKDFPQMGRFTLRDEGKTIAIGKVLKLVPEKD
T1 sequence (Q96SW2 whole entry): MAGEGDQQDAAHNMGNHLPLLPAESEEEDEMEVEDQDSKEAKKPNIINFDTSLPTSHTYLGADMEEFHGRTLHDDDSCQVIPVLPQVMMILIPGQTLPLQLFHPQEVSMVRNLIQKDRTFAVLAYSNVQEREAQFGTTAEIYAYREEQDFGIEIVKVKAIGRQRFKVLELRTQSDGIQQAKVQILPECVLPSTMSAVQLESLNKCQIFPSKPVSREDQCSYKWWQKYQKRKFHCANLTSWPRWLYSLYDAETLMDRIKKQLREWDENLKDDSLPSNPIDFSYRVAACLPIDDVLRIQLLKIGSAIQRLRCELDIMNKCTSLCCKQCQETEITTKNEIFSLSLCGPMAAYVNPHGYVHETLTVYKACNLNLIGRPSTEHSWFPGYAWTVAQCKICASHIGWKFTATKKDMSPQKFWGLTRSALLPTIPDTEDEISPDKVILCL
T1 sequence (Q16531 whole entry partner): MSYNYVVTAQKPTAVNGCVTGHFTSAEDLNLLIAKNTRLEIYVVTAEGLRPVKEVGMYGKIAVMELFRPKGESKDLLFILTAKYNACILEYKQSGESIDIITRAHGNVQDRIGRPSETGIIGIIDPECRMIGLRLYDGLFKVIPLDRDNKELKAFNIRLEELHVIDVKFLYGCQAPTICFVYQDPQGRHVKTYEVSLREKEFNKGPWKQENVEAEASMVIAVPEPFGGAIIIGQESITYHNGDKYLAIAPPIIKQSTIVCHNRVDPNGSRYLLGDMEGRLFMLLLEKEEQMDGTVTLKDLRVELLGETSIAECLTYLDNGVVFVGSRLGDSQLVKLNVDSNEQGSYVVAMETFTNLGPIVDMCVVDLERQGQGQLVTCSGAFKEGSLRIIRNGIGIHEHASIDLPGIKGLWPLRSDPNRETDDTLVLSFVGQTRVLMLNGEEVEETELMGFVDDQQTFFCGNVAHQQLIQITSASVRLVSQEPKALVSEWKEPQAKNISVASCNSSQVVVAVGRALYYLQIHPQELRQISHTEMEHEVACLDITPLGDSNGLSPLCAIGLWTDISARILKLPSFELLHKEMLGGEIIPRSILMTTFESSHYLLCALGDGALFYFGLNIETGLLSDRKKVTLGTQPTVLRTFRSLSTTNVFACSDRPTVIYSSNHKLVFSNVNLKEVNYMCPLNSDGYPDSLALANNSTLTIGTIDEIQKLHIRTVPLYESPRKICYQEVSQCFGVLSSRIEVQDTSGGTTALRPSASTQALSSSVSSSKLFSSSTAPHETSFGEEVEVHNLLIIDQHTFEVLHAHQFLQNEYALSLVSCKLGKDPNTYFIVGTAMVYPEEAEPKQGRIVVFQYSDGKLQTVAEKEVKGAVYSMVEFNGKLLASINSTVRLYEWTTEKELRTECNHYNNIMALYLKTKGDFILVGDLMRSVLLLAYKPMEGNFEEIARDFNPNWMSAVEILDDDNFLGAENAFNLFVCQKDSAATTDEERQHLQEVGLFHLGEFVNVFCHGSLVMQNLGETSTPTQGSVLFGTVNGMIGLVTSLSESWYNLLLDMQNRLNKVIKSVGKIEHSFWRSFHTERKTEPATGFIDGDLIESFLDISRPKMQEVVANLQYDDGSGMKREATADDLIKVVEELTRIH

Structure (SMILES)	IC50 [1]	IC50 [2]	half-life [3]	microsomal CLint [3]	IC50 [4]	AUC(0-inf) ([5]; iv, 2 mg/kg)	AUC(0-t) ([5]; iv, 2 mg/kg)	C0 ([5]; iv, 2 mg/kg)	Vd ([5]; iv, 2 mg/kg)	clearance ([5]; iv, 2 mg/kg)	half-life ([5]; iv, 2 mg/kg)	AUC(0-inf) ([5]; po, 10 mg/kg)	AUC(0-t) ([5]; po, 10 mg/kg)	Cmax ([5]; po, 10 mg/kg)	Tmax ([5]; po, 10 mg/kg)	half-life ([5]; po, 10 mg/kg)	F [5]	IC50 [8]	percent GSPT1 degradation at 0.2 µM ([6]; KG-1 cells, 4 hours)	also measured
O=C1CCC(N2Cc3cc(CNC(=O)C4=Cc5cc(OC(F)(F)F)ccc5OC4)ccc3C2=O)C(=O)N1 (centres unmarked) [Compound A-10, N-((2-(2,6-Dioxopiperidin-3-yl)-1-oxoisoindolin-5-yl)methyl)-6-trifluoromethoxy-2H-chromene-3-carboxamide]	10 to 100 nM	10 to 100 nM	2.77 h	8.35 µL/min/mg	1 to 10 nM	4350 ± 1200 ng·h/mL	4310 ± 1200 ng·h/mL	16700 ± 4330 ng/mL	0.42 ± 0.13 L/kg	8.1 ± 2.5 mL/min/kg	1.53 ± 0.29 h	4980 ± 2740 ng·h/mL	4950 ± 2770 ng·h/mL	3460 ± 1540 ng/mL	0.33 ± 0.14 h	3.03 ± 0.63 h	22.9±12.6%	1 to 10 nM		exposure level relative to CC-90009 ([5]; administered orally): nearly three times; clearance rate relative to CC-90009 ([5]; intravenous injection): one third; plasma drug exposure level relative to CC-90009 ([5]; intravenous injection): nearly four times; percent GSPT1 degradation ([6]; KG-1, 4 h, read-out: GSPT1 degradation): > 80%; degradation of GSPT1 in KG-1 and MV4-11 cells ([6]; KG-1 and MV4-11 cells, FIGs. 1 and 2): concentration-dependent and time-dependent; percentage of degradation of GSPT1 protein ([6]; KG-1 cells, 200 nM, 4 hours): higher than 80%; weight loss in mice [7]: no significant weight loss
O=C1CCC(N2Cc3cc(CNC(=O)C4=Cc5cc(F)ccc5OC4)ccc3C2=O)C(=O)N1 (centres unmarked) [Compound A-3, N-((2-(2,6-Dioxopiperidin-3-yl)-1-oxoisoindolin-5-yl)methyl)-6-fluoro-2H-chromene-3-carboxamide]	10 to 100 nM	10 to 100 nM	4.67 h	4.95 µL/min/mg	10 to 100 nM													10 to 100 nM	> 80%	
O=C1CCC(N2Cc3cc(CNC(=O)C4=Cc5ccccc5OC4)ccc3C2=O)C(=O)N1 (centres unmarked) [Compound A-1, N-((2-(2,6-Dioxopiperidin-3-yl)-1-oxoisoindolin-5-yl)methyl)-2H-chromene-3-carboxamide]	10 to 100 nM	10 to 100 nM	6.17 h	3.75 µL/min/mg	1 to 10 nM	1920 ± 267 ng·h/mL	1900 ± 270 ng·h/mL	3840 ± 226 ng/mL	0.92 ± 0.07 L/kg	17.6 ± 2.6 mL/min/kg	1.38 ± 0.14 h	1850 ± 330 ng·h/mL	1810 ± 343 ng·h/mL	619 ± 42 ng/mL	0.75 ± 0.43 h	2.69 ± 1.13 h	19.3±3.4%	10 to 100 nM	> 80%	
O=C1CCC(N2Cc3cc(CNC(=O)C4COc5ccc(OC(F)(F)F)cc5C4)ccc3C2=O)C(=O)N1 (centres unmarked) [Compound B-4, N-((2-(2,6-Dioxopiperidin-3-yl)-1-oxoisoindolin-5-yl)methyl)-6-(trifluoromethoxy)chromane-3-carboxamide]	< 1 nM	< 1 nM			1 to 10 nM													1 to 10 nM	> 80%	
